# According to PubChem BioAssay (NCI):
#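 1) Cells in 96-well plates. 2) Compound, 48 h, 5 concentrations. 3) Linear interpolation between surrounding doses. 4) Unreached endpoint = highest concentration. TGI denotes the concentration required for complete inhibition of growth.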
# How the values were obtained:
# Assay in all cases: DTP human tumour cell line panel, 48 h
# [1] = system: 786-0 renal
# [2] = system: A498 renal
# [3] = system: A549 NSCLC
# [4] = system: ACHN renal
# [5] = system: CCRF-CEM leukemia
# [6] = system: COLO 205 colon
# [7] = system: DLD-1 colon
# [8] = system: EKVX NSCLC
# [9] = system: HCT-116 colon
# [10] = system: HCT-15 colon
# [11] = system: HOP-18 NSCLC
# [12] = system: HOP-62 NSCLC
# [13] = system: HOP-92 NSCLC
# [14] = system: HT29 colon
# [15] = system: IGROV1 ovarian
# [16] = system: K-562 leukemia
# [17] = system: KM12 colon
# [18] = system: KM20L2 colon
# [19] = system: LOX IMVI melanoma
# [20] = system: LXFL 529 NSCLC
# [21] = system: M14 melanoma
# [22] = system: MALME-3M melanoma
# [23] = system: MOLT-4 leukemia
# [24] = system: NCI-H226 lung
# [25] = system: NCI-H23 lung
# [26] = system: NCI-H460 lung
# [27] = system: NCI-H522 lung
# [28] = system: OVCAR-3 ovarian
# [29] = system: OVCAR-4 ovarian
# [30] = system: OVCAR-5 ovarian
# [31] = system: OVCAR-8 ovarian
# [32] = system: RPMI-8226 leukemia
# [33] = system: RXF 393 renal
# [34] = system: RXF-631 renal
# [35] = system: SF-268 CNS
# [36] = system: SF-295 CNS
# [37] = system: SF-539 CNS
# [38] = system: SK-MEL-2 melanoma
# [39] = system: SK-MEL-28 melanoma
# [40] = system: SK-MEL-5 melanoma
# [41] = system: SK-OV-3 ovarian
# [42] = system: SN12C renal
# [43] = system: SNB-19 CNS
# [44] = system: SNB-75 CNS
# [45] = system: SNB-78 CNS
# [46] = system: SW-620 colon
# [47] = system: TK-10 renal
# [48] = system: U251 CNS
# [49] = system: UACC-257 melanoma
# [50] = system: UACC-62 melanoma
# [51] = system: UO-31 renal
# [52] = system: CAKI-1 renal
# [53] = system: DMS 114 small cell lung
# [54] = system: DMS 273 small cell lung
# [55] = system: HCC-2998 colon
# [56] = system: HL-60(TB) leukemia
# [57] = system: M19-MEL melanoma
# [58] = system: XF 498 CNS
smiles,measurement,setting,value
O=C(CC1(O)C(=O)Nc2ccc(Br)cc21)c1ccc(Cl)cc1 (centres undefined),TGI,[1],> 100 µM
same,TGI,[2],> 100 µM
same,TGI,[3],> 100 µM
same,TGI,[4],> 100 µM
same,TGI,[5],> 100 µM
same,TGI,[6],> 100 µM
same,TGI,[7],> 100 µM
same,TGI,[8],> 100 µM
same,TGI,[9],> 100 µM
same,TGI,[10],> 100 µM
same,TGI,[11],> 100 µM
same,TGI,[12],> 100 µM
same,TGI,[13],87.6 µM
same,TGI,[14],> 100 µM
same,TGI,[15],> 100 µM
same,TGI,[16],> 100 µM
same,TGI,[17],> 100 µM
same,TGI,[18],> 100 µM
same,TGI,[19],38.2 µM
same,TGI,[20],> 100 µM
same,TGI,[21],> 100 µM
same,TGI,[22],> 100 µM
same,TGI,[23],> 100 µM
same,TGI,[24],> 100 µM
same,TGI,[25],> 100 µM
same,TGI,[26],> 100 µM
same,TGI,[27],> 100 µM
same,TGI,[28],> 100 µM
same,TGI,[29],> 100 µM
same,TGI,[30],> 100 µM
same,TGI,[31],> 100 µM
same,TGI,[32],> 100 µM
same,TGI,[33],> 100 µM
same,TGI,[34],> 100 µM
same,TGI,[35],> 100 µM
same,TGI,[36],> 100 µM
same,TGI,[37],> 100 µM
same,TGI,[38],> 100 µM
same,TGI,[39],> 100 µM
same,TGI,[40],> 100 µM
same,TGI,[41],> 100 µM
same,TGI,[42],> 100 µM
same,TGI,[43],> 100 µM
same,TGI,[44],77.7 µM
same,TGI,[45],> 100 µM
same,TGI,[46],> 100 µM
same,TGI,[47],> 100 µM
same,TGI,[48],95.1 µM
same,TGI,[49],98 µM
same,TGI,[50],> 100 µM
same,TGI,[51],> 100 µM
Cc1cc2c(cc1C)[n+](=O)c(C(=O)/C=C/c1ccc(Cl)cc1)c(C)n2[O-],TGI,[1],34.4 µM
same,TGI,[2],75.9 µM
same,TGI,[3],80.4 µM
same,TGI,[4],62 µM
same,TGI,[52],> 100 µM
same,TGI,[5],> 100 µM
same,TGI,[6],41.1 µM
same,TGI,[7],70.9 µM
same,TGI,[53],94.4 µM
same,TGI,[54],> 100 µM
same,TGI,[8],> 100 µM
same,TGI,[55],46.1 µM
same,TGI,[10],> 100 µM
same,TGI,[56],> 100 µM
same,TGI,[11],> 100 µM
same,TGI,[12],68.7 µM
same,TGI,[13],> 100 µM
same,TGI,[14],95.5 µM
same,TGI,[15],63.7 µM
same,TGI,[16],> 100 µM
same,TGI,[17],> 100 µM
same,TGI,[18],> 100 µM
same,TGI,[19],50.4 µM
same,TGI,[20],> 100 µM
same,TGI,[21],54.1 µM
same,TGI,[57],> 100 µM
same,TGI,[22],> 100 µM
same,TGI,[23],73.5 µM
same,TGI,[24],> 100 µM
same,TGI,[25],65.6 µM
same,TGI,[26],62.7 µM
same,TGI,[27],50.4 µM
same,TGI,[28],> 100 µM
same,TGI,[29],81.9 µM
same,TGI,[30],> 100 µM
same,TGI,[31],84.2 µM
same,TGI,[32],60.5 µM
same,TGI,[36],69.3 µM
same,TGI,[37],47.3 µM
same,TGI,[38],79.1 µM
same,TGI,[39],59.4 µM
same,TGI,[40],58.7 µM
same,TGI,[41],> 100 µM
same,TGI,[42],> 100 µM
same,TGI,[43],> 100 µM
same,TGI,[44],45.5 µM
same,TGI,[45],> 100 µM
same,TGI,[46],> 100 µM
same,TGI,[47],58.5 µM
same,TGI,[48],67.9 µM
same,TGI,[49],89.9 µM
same,TGI,[50],44.3 µM
same,TGI,[51],39.6 µM
same,TGI,[58],68.6 µM
CCOC(=O)C(=O)C1C(=O)Nc2ccccc21 (centres undefined),TGI,[1],> 100 µM
same,TGI,[2],> 100 µM
same,TGI,[3],> 100 µM
same,TGI,[4],> 100 µM
same,TGI,[52],> 100 µM
same,TGI,[5],> 100 µM
same,TGI,[6],> 100 µM
same,TGI,[7],> 100 µM
same,TGI,[53],> 100 µM
same,TGI,[54],> 100 µM
same,TGI,[8],> 100 µM
same,TGI,[55],> 100 µM
same,TGI,[9],> 100 µM
same,TGI,[56],> 100 µM
same,TGI,[12],> 100 µM
same,TGI,[13],> 100 µM
same,TGI,[14],> 100 µM
same,TGI,[15],> 100 µM
same,TGI,[16],> 100 µM
same,TGI,[17],> 100 µM
same,TGI,[19],> 100 µM
same,TGI,[20],> 100 µM
same,TGI,[21],> 100 µM
same,TGI,[57],> 100 µM
same,TGI,[22],> 100 µM
same,TGI,[23],> 100 µM
same,TGI,[24],> 100 µM
same,TGI,[25],> 100 µM
same,TGI,[26],> 100 µM
same,TGI,[28],> 100 µM
same,TGI,[29],> 100 µM
same,TGI,[30],> 100 µM
same,TGI,[31],> 100 µM
same,TGI,[32],> 100 µM
same,TGI,[33],> 100 µM
same,TGI,[34],> 100 µM
same,TGI,[35],> 100 µM
same,TGI,[36],> 100 µM
same,TGI,[38],> 100 µM
same,TGI,[39],> 100 µM
same,TGI,[42],> 100 µM
same,TGI,[43],> 100 µM
same,TGI,[44],> 100 µM
same,TGI,[46],> 100 µM
same,TGI,[47],> 100 µM
same,TGI,[48],> 100 µM
same,TGI,[49],> 100 µM
same,TGI,[50],> 100 µM
same,TGI,[51],> 100 µM
same,TGI,[58],> 100 µM
CC1CCC2(NC1)OC1CC3[C@@H]4CC=C5C=CCC[C@]5(C)C4CC[C@]3(C)C1C2C (some centres undefined),TGI,[1],35.5 µM
same,TGI,[2],> 100 µM
same,TGI,[3],58.5 µM
same,TGI,[4],44.6 µM
same,TGI,[52],> 100 µM
same,TGI,[5],55.4 µM
same,TGI,[6],34.6 µM
same,TGI,[7],58.2 µM
same,TGI,[53],46.8 µM
same,TGI,[8],55.5 µM
same,TGI,[55],31.4 µM
same,TGI,[9],32.7 µM
same,TGI,[10],48.8 µM
same,TGI,[56],29.7 µM
same,TGI,[11],> 100 µM
same,TGI,[12],36.6 µM
same,TGI,[13],61.8 µM
same,TGI,[14],32.1 µM
same,TGI,[15],> 100 µM
same,TGI,[16],46.6 µM
same,TGI,[17],44 µM
same,TGI,[18],33.8 µM
same,TGI,[19],33.6 µM
same,TGI,[21],50.9 µM
same,TGI,[57],> 100 µM
same,TGI,[22],35.3 µM
same,TGI,[23],66.3 µM
same,TGI,[24],> 100 µM
same,TGI,[25],> 100 µM
same,TGI,[26],34.1 µM
same,TGI,[28],80.5 µM
same,TGI,[29],51 µM
same,TGI,[30],50 µM
same,TGI,[31],48.1 µM
same,TGI,[32],46 µM
same,TGI,[33],> 100 µM
same,TGI,[35],> 100 µM
same,TGI,[36],52.8 µM
same,TGI,[37],43.2 µM
same,TGI,[38],35.2 µM
same,TGI,[39],30 µM
same,TGI,[40],30.8 µM
same,TGI,[41],68.4 µM
same,TGI,[42],85.8 µM
same,TGI,[43],> 100 µM
same,TGI,[44],80.6 µM
same,TGI,[45],> 100 µM
same,TGI,[46],41.2 µM
same,TGI,[47],35.3 µM
same,TGI,[48],88.7 µM
same,TGI,[49],49 µM
same,TGI,[50],42.5 µM
same,TGI,[51],68.7 µM
same,TGI,[58],33 µM
